# Measured values: US6534524B1, “Indazole compounds and pharmaceutical compositions for inhibiting protein kinases, and methods for their use” (Agouron Pharmaceuticals, Inc., priority 1999, dated 2003)
# Read-outs that look alike come from different tables or passages of the source.
# Legend:
# [1] = target: unphosphorylated VEGF-R2Δ50 (FLVK) (Homo sapiens, UniProt P35968, DEL940-989/E990V); assay: VEGF-R2 coupled spectrophotometric assay, unphosphorylated VEGF-R2Δ50 (FLVK); details: for Ki: FLVK Ki, Table 1; for inhibition at 0.05 µM: read-out: FLVK % inhibition
# Sequence of unphosphorylated VEGF-R2Δ50 (FLVK) (P35968 with tags, fused parts or gaps DEL940-989/E990V limits assumed): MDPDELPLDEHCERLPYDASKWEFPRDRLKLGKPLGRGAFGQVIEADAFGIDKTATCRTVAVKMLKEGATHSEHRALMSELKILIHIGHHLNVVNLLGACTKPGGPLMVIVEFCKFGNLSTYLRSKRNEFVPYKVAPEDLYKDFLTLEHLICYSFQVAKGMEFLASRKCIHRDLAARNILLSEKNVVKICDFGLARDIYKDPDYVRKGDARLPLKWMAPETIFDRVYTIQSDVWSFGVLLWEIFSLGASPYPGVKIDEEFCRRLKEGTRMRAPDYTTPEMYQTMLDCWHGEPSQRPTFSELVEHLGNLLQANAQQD
# [2] = Human liver microsome (HLM) assay; type: in vitro ADME; details: human liver microsomes, 5 μM test compound
# How it was run: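 Compound metabolism in human liver microsomes measured in triplicate. Samples at 0 and 2 h centrifuged at 14000 g for 10 min and analysed by LC-MS.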
# [3] = tested on: retinal vasculature (VEGF dependent); assay: In vivo assay of retinal vascular development in neonatal rats; details: P8 model; intravitreal; 5 mg/ml; vehicle PEG/water 50:50
# human FGF-R1 = human FGF-R1 (Homo sapiens, UniProt P11362, C488A/C584S/L457V); assay: FGF-R spectrophotometric assay
# Sequence of human FGF-R1 (P11362 456-766 L457V/C488A/C584S): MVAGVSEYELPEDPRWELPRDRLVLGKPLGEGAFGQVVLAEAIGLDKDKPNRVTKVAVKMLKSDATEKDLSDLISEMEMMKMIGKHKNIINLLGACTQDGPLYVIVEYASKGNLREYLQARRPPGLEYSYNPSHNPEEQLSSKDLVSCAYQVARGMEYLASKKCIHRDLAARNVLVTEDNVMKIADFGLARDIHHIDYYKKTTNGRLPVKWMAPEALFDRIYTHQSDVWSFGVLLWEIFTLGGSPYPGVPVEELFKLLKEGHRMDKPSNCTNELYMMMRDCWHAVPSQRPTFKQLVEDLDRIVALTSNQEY
# [4] = Determination of inhibitor concentration in mouse plasma after intraperitoneal and oral dosing; type: in vivo
# How it was run: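 Mice dosed intraperitoneally or orally; blood taken by ocular bleed at 0.5, 1 and 4 h and by intracardiac puncture at 7 h. Plasma extracted with ethyl acetate after internal standard and NaOH addition, analysed by HPLC or LC-MS against a mouse-plasma standard curve.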
# [5] = tested on: human umbilical vein endothelial cells (HUVEC); assay: HUVEC proliferation assay (VEGF-stimulated, MTT); type: cell-based; details: Homo sapiens, HUVEC
# [6] = tested on: VEGF dependent retinal neovascularization; assay: In vivo assay of retinal vascular development in neonatal rat model of retinopathy of prematurity; details: ROP model, intravitreal, vehicle PEG/water 70:30; for % inhibition: 1 mg/ml; for Initial Evaluation: 10 mg/ml
# Method: In Vivo Assay of Retinal Vascular Development in Neonatal Rat Model of Retinopathy of Prematurity A second model of VEGF dependent retinal neovascularization was employed to evaluate the activities of this series of compounds. […] This alternating cycle of hyperoxia followed by hypoxia is repeated 7 times after which the animals are removed to room air (P14). Compounds are administered via intravitreal injection upon removal to room air and the animals are sacrificed 6 days later (P20). The isolated retinas are then isolated, stained mounted and analyzed as detail above in the development model. The effectiveness was also graded as is described for the development model.
# [7] = tested on: lung cancer cells (line MV522); assay: Cancer cell proliferation (MV522) assay; type: cell-based
# Method: Cancer Cell Proliferation (MV522) Assay
# The protocol for assessing cellular proliferation in cancer cells is similar to that used for assessments in HUVEC cells. Two thousand lung cancer cells (line MV522, acquired from American Tissue Cultural Collection) were seeded in growth media (RPMI1640 medium supplemented with 2 mM glutamine and 10% FBS). Cells are allowed to attach for 1 day prior to addition of test agents and/or vehicles. Cells are treated simultaneously with the same test agents used in the HUVEC assay. Cellular proliferation is quantified by MTT dye reduction assay 72 hours after exposure to test agents. The total length of the assay is 4 days vs. 5 for HUVEC cells because MV522 cells are not exposed to starvation medium.
# LCK tyrosine kinase = target: T1, LCK tyrosine kinase (Homo sapiens, UniProt P06239, C224D/P223M); assay: LCK spectrophotometric assay; type: biochemical; details: Table 1; compound concentration 1 μM; read-out: Lck-P % inhibition
# T1 construct: starting from amino acid residue 223 to the end of the protein at residue 509; made in house; host or cells: insect cells
# T1 sequence (P06239 223-509 P223M/C224D): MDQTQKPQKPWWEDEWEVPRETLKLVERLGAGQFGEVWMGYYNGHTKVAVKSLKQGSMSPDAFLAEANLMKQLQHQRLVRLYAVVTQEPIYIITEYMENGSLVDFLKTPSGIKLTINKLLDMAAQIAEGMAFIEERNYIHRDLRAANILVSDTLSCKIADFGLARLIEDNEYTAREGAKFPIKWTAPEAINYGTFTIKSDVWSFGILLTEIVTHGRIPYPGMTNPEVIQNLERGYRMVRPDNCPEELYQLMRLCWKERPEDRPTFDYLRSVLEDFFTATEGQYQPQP
# Method: The production of ADP from ATP that accompanies phosphoryl transfer was coupled to oxidation of NADH using phosphoenolpyruvate (PEP) and a system having pyruvate kinase (PK) and lactic dehydrogenase (LDH). The oxidation of NADH was monitored by following the decrease of absorbance at 340 nm (e340=6.22 cm^−1 mM^−1) using a Beckman DU 650 spectrophotometer. […] Ki values were determined by measuring enzyme activity in the presence of varying concentrations of test compounds. The data were analyzed using Enzyme Kinetic and Kaleidagraph software.
# The spectrophotometric assay was carried out as described above for VEGF-R2, except for the following changes in concentration: LCK=60 nM, MgCl2=0 mM, poly(E4Y1)=20 mM.
# [8] = IP, 25 mg/kg, vehicle PEG400:H2O pH 2.3 30:70
# [9] = PO, 10 mg/kg, vehicle PEG400:H2O pH 2.3 30:70
# [10] = PO, 25 mg/kg, vehicle PEG400:H2O pH 2.3 30:70
# [11] = PO, 50 mg/kg, vehicle PEG400:H2O pH 2.3 30:70
# [12] = female, IP, 25 mg/kg, vehicle PEG400:H2O pH 2.3 30:70, read-out: Cmin (7 hr conc.)
# [13] = female, PO, 25 mg/kg, vehicle PEG400:H2O pH 2.3 30:70, read-out: Cmin (7 hr conc.)
# [14] = female, PO, 50 mg/kg, vehicle PEG400:H2O pH 2.3 30:70, read-out: Cmin (7 hr conc.)
# [15] = + albumin, read-out: HUVEC + albumin IC50
# [16] = IP, 25 mg/kg, vehicle PEG400:H2O pH 2.3 60:40
# [17] = PO, 50 mg/kg, vehicle PEG400:H2O pH 2.3 60:40
# [18] = female, IP, 25 mg/kg, vehicle PEG400:H2O pH 2.3 60:40, read-out: Cmin (7 hr conc.)
# [19] = female, PO, 50 mg/kg, vehicle PEG400:H2O pH 2.3 60:40, read-out: Cmin (7 hr conc.)
# [20] = female, IP, 25 mg/kg, vehicle PEG400:H2O pH 2.3 30:70
# [21] = female, PO, 50 mg/kg, vehicle PEG400:H2O pH 2.3 30:70
compound,measurement,setting,value
"CS(=O)(=O)c1ccc(C(=O)Nc2cccc(Oc3ccc4c(/C=C/c5ccccn5)n[nH]c4c3)c2)s1 [Example 31(c), 6-[3-((5-Methylsulfonylthien-2-yl)carboxanido)phenoxy]-3-E-[2-(pyridin-2-yl)ethenyl]-1H-indazole]",Ki,[1],< 0.1 nM
same,"% remain (HLM, 2 h)",[2],87%
same,Initial Evaluation,[3],+/++ var
"CCn1nc(C)cc1C(=O)Nc1cccc(Oc2ccc3c(/C=C/c4ccccn4)n[nH]c3c2)c1 [Example 31(d), 6-[3-((1-Ethyl-3-methyl-1H-pyrazol-5-yl)carboxamido)phenoxy]-3-E-[2-(pyridin-2-yl)ethenyl]-1H-indazole]",Ki,human FGF-R1,14 nM
same,"% remain (HLM, 2 h)",[2],110%
same,% inhibition,[3],12%
same,AUClast,[4]; [8],237784 ng·h/mL
same,Cmax,[4]; [8],64184 ng/mL
same,plasma half-life (T1/2),[4]; [8],5.3 h
same,AUClast,[4]; [9],49120 ng·h/mL
same,Cmax,[4]; [9],9740 ng/mL
same,plasma half-life (T1/2),[4]; [9],3.1 h
same,AUClast,[4]; [10],203860 ng·h/mL
same,Cmax,[4]; [10],50810 ng/mL
same,plasma half-life (T1/2),[4]; [10],1.9 h
same,AUClast,[4]; [11],430683 ng·h/mL
same,Cmax,[4]; [11],76915 ng/mL
same,plasma half-life (T1/2),[4]; [11],39.3 h
same,concentration at 7 h,[4]; [12],15100 ng/mL
same,concentration at 7 hr,"[4]; female, PO, 10 mg/kg, vehicle PEG400:H2O pH 2.3 30:70, read-out: Cmin (7 hr conc.)",2020 ng/mL
same,concentration at 7 h,[4]; [13],3800 ng/mL
same,concentration at 7 h,[4]; [14],42500 ng/mL
"CCONC(=O)c1ccccc1Sc1ccc2c(/C=C/c3ccccn3)n[nH]c2c1 [Example 35(dd), 6-[2-(Ethoxycarbamoyl)phenylsulfanyl]-3-E-[2-(pyridin-2-yl)ethenyl]-1H-indazole]",Ki,[1],0.6 nM
same,Ki,human FGF-R1,75 nM
same,"% remain (HLM, 2 h)",[2],26%
same,Initial Evaluation,[3],++/+++ var
"C=CCONC(=O)c1ccccc1Sc1ccc2c(/C=C/c3ccccn3)n[nH]c2c1 [Example 35(j), 6-[2-(Allyloxycarbamoyl)phenylsulfanyl]-3-E-[2-(pyridin-2-yl)ethenyl]-1H-indazole]",IC50,[5]; [15],1.5 nM
same,inhibition at 0.05 µM,[1],99%
same,"% remain (HLM, 2 h)",[2],5%
same,% inhibition,[3],7%
same,AUClast,[4]; [8],9531 ng·h/mL
same,plasma half-life (T1/2),[4]; [8],1.3 h
same,AUClast,[4]; [11],1328 ng·h/mL
same,plasma half-life (T1/2),[4]; [11],4.5 h
same,concentration at 7 h,[4]; [12],52 ng/mL
same,concentration at 7 h,[4]; [14],5 ng/mL
"C/C=C/C(=O)Nc1cccc(C(=O)c2ccc3c(/C=C/c4ccccn4)n[nH]c3c2)c1 [Example 41(c), 6-(3-Crotonylamidobenzoyl)-3-E-[2-(pyridin-2-yl)ethenyl]-1H-indazole]",Ki,[1],0.22 nM
same,"% remain (HLM, 2 h)",[2],68%
same,Initial Evaluation,[3],++ (two pluses being judged to be approximately 25-75% regression)
same,% inhibition,[6],16%
same,Initial Evaluation,[6],+++ (three pluses give to retinas with near total regression (approximately 75% or greater))
same,AUClast,[4]; [16],3397 ng·h/mL
same,plasma half-life (T1/2),[4]; [16],1.7 h
same,AUClast,[4]; [17],3182 ng·h/mL
same,plasma half-life (T1/2),[4]; [17],2.6 h
same,concentration at 7 h,[4]; [18],57 ng/mL
same,concentration at 7 h,[4]; [19],104 ng/mL
"O=C(c1cccc(NC(=O)c2cccc3[nH]ccc23)c1)c1ccc2c(/C=C/c3ccccn3)n[nH]c2c1 [Example 41(d), 6-[3-(Indol-4-ylcarboxamido)benzoyl]-3-E-[2-(pyridin-2-yl)ethenyl]-1H-indazole]",Ki,[1],0.093 nM
same,% inhibition,[6],0%
same,AUClast,[4]; [16],10324 ng·h/mL
same,plasma half-life (T1/2),[4]; [16],2.8 h
same,AUClast,[4]; [17],7072 ng·h/mL
same,plasma half-life (T1/2),[4]; [17],1.5 h
same,concentration at 7 h,[4]; [18],573 ng/mL
same,concentration at 7 h,[4]; [19],150 ng/mL
"CCn1nc(C)cc1C(=O)Nc1cc(C(=O)c2ccc3c(/C=C/c4ccccn4)n[nH]c3c2)ccc1C [Example 41(ee), 6-[3-((1-Ethyl-3-methyl-1H-pyrazol-5-yl)carboxanido)-4-methylbenzoyl]-3-E-[2-(pyridin-2-yl)ethenyl]-1H-indazole]",Ki,[1],0.13 nM
same,"% remain (HLM, 2 h)",[2],47%
same,Initial Evaluation,[3],+/++ var
same,plasma half-life (T1/2),[4]; [8],4.0 h
same,plasma half-life (T1/2),[4]; [11],3.4 h
same,AUC(0-t),[4]; [20],> 28400 ng·h/mL
same,concentration at 7 h,[4]; [12],1670 ng/mL
same,AUC(0-t),[4]; [21],> 25300 ng·h/mL
same,concentration at 7 h,[4]; [14],1210 ng/mL
"CCCn1nc(C)cc1C(=O)Nc1cccc(C(=O)c2ccc3c(/C=C/c4ccccn4)n[nH]c3c2)c1 [Example 41(r), 6-[3-((1-n-Propyl-3-methyl-1H-pyrazol-5-yl)carboxamido)benzoyl]-3-E-[2-(pyridin-2-yl)ethenyl]-1H-indazole]","% remain (HLM, 2 h)",[2],83%
same,Initial Evaluation,[3],+/++ var
same,AUC(0-t),[4]; [20],> 23800 ng·h/mL
same,Cmax,"[4]; female, IP, 25 mg/kg, vehicle PEG400:H2O pH 2.3 30:70, read-out: Cmax",> 5000 ng/mL
same,concentration at 7 h,[4]; [12],> 5000 ng/mL
same,AUC(0-t),[4]; [21],> 17800 ng·h/mL
same,Cmax,"[4]; female, PO, 50 mg/kg, vehicle PEG400:H2O pH 2.3 30:70, read-out: Cmax",> 5000 ng/mL
same,concentration at 7 h,[4]; [14],> 5000 ng/mL
"O=C(c1cccc(NC(=O)c2cccc3[nH]ccc23)c1)c1ccc2c(/C=N/n3cccc3)n[nH]c2c1 [Example 45(a), 6-[3-(Indol-4-ylcarboxamido)benzoyl]-3-E-[N-(pyrrol-1-yl)iminomethyl]-1H-indazole]",IC50,[5]; [15],~15 nM
same,IC50,[5]; read-out: HUVEC IC50,3.1 nM
same,IC50,[7],3500 nM
"O=C(Nc1cccc(C(=O)c2ccc3c(/C=N/n4cccc4)n[nH]c3c2)c1)c1ccccc1 [Example 45(b), 6-(3-Benzamidobenzoyl)-3-E-[N-(pyrrol-1-yl)iminomethyl]-1H-indazole]",inhibition at 0.05 µM,[1],99%
same,inhibition at 1 µM,"human FGF-R1; read-out: FGF-P % inhibition, Table 1, compound concentration 1 μM",79%
same,IC50,[7],4400 nM
same,inhibition at 1 µM,LCK tyrosine kinase,86%
same,Initial Evaluation,[6],++ (two pluses being judged to be approximately 25-75% regression)
same,AUClast,[4]; [16],11361 ng·h/mL
same,plasma half-life (T1/2),[4]; [16],2.0 h
same,AUClast,[4]; [17],1636 ng·h/mL
same,plasma half-life (T1/2),[4]; [17],3.0 h
"Cc1cc(C(=O)Nc2cc(Nc3ccc4c(/C=C/c5ccccn5)n[nH]c4c3)ccc2F)n(C)n1 [Example 49(a), 6-[N-(3-((1,3-Dimethyl-1H-pyrazol-5-yl)carboxamido)-4-fluoro-phenyl)amino]-3-E-[2-(pyridin-2-yl)ethenyl]-1H-indazole]",IC50,[5]; [15],~4 nM
same,Ki,human FGF-R1,79 nM
same,IC50,[7],8400 nM
same,inhibition at 1 µM,LCK tyrosine kinase,11%
same,AUClast,[4]; [10],712 ng·h/mL
same,concentration at 7 h,[4]; [13],15 ng/mL
